Measured values as given in PubChem BioAssay (NCI).
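Assay format: 96-well plates, 48-hour exposure. At the TGI there is no net growth.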

Assays:
Assay in all cases: DTP human tumour cell line panel, 48 h
[1] = test system: HL-60(TB) leukemia
[2] = test system: K-562 leukemia
[3] = test system: OVCAR-4 ovarian
[4] = test system: ACHN renal
[5] = test system: RXF-631 renal
[6] = test system: RXF 393 renal
[7] = test system: SK-MEL-5 melanoma
[8] = test system: LOX IMVI melanoma
[9] = test system: SNB-19 CNS
[10] = test system: HOP-92 NSCLC
[11] = test system: SF-539 CNS
[12] = test system: DMS 273 small cell lung
[13] = test system: DLD-1 colon
[14] = test system: OVCAR-3 ovarian
[15] = test system: HT29 colon
[16] = test system: MALME-3M melanoma
[17] = test system: SN12C renal
[18] = test system: KM20L2 colon
[19] = test system: COLO 205 colon
[20] = test system: SK-MEL-2 melanoma
[21] = test system: HCT-116 colon
[22] = test system: A549 NSCLC
[23] = test system: EKVX NSCLC
[24] = test system: SNB-78 CNS
[25] = test system: SF-295 CNS
[26] = test system: M14 melanoma
[27] = test system: SK-MEL-28 melanoma
[28] = test system: HOP-62 NSCLC
[29] = test system: HCC-2998 colon
[30] = test system: UACC-257 melanoma
[31] = test system: M19-MEL melanoma
[32] = test system: SK-OV-3 ovarian
[33] = test system: MOLT-4 leukemia
[34] = test system: HOP-18 NSCLC
[35] = test system: SF-268 CNS
[36] = test system: IGROV1 ovarian
[37] = test system: LXFL 529 NSCLC
[38] = test system: 786-0 renal
[39] = test system: NCI-H226 lung
[40] = test system: SW-620 colon
[41] = test system: HCT-15 colon
[42] = test system: KM12 colon
[43] = test system: CCRF-CEM leukemia
[44] = test system: SR leukemia
[45] = test system: OVCAR-5 ovarian
[46] = test system: OVCAR-8 ovarian
[47] = test system: UO-31 renal
[48] = test system: NCI-H23 lung
[49] = test system: U251 CNS
[50] = test system: NCI-H460 lung
[51] = test system: UACC-62 melanoma
[52] = test system: CAKI-1 renal
[53] = test system: TK-10 renal
[54] = test system: DMS 114 small cell lung
[55] = test system: A498 renal
[56] = test system: NCI-H522 lung
[57] = test system: XF 498 CNS
[58] = test system: RPMI-8226 leukemia
[59] = test system: SNB-75 CNS

Measured: TGI

NC1=NN(c2ccccc2)C(=O)C1C(=O)CCC(=O)Nc1cccc(C(F)(F)F)c1 (configuration not stated)
not listed: [55] | [56] | [57] | [58] | [59]
> 100 µM: all other assays above

O=C(O)CP(=S)(S)c1ccccc1 (configuration not stated)
not listed: [5] | [14] | [18] | [21] | [29] | [34] | [36] | [41] | [45] | [58] | [59]
> 100 µM: all other assays above

CCOC(=O)C(Cc1ccc2ccccc2c1)(Cc1ccc2ccccc2c1)C(C)=O
6.58 µM: [58]
> 10 µM: [2] | [3] | [4] | [8] | [10] | [12] | [13] | [16] | [17] | [18] | [19] | [22] | [24] | [26] | [28] | [31] | [32] | [36] | [37] | [38] | [40] | [41] | [43] | [49] | [50] | [51] | [57]
8.61 µM: [33]
8.51 µM: [29]

O=c1cccccc1NCCCNc1cccccc1=O
39.2 µM: [16]
32.3 µM: [17]
not listed: [3] | [7] | [13] | [27] | [29] | [34] | [53] | [55] | [59]
> 100 µM: all other assays above

CC1(n2nc(-c3ccccc3)n(-c3ccccc3)c2=O)CSC1
not listed: [5] | [14] | [16] | [34]
> 100 µM: all other assays above
